From PubChem BioAssay AID540323 (Johns Hopkins Ion Channel Center, 2011) come the findings set out here.

For the assay, the target named is Voltage-gated inwardly rectifying potassium channel KCNH2 (Homo sapiens) (UniProt Q12809). In words: hERG channel inhibition, SAR follow-up, selectivity assay for KCNK9 inhibitor project, FluxOR Tl flux, hERG cells, CRC 2 (AID 540323). Particulars: hERG-expressing cells, FluxOR thallium flux fluorescence; at 30 µM (top of the series); test wells contain dofetilide at its IC70. (In general: Block of hERG is tested as a sign of cardiac risk.)

Active and inactive are the calls of the source.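 Rule for the calls: active = peak hERG channel inhibition above 30% at some tested dose, together with a fitted dose response curve; inactive = no hERG inhibition at any dose, or no curve.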

Chain of Voltage-gated inwardly rectifying potassium channel KCNH2 (Homo sapiens) (Q12809 whole entry, looked up): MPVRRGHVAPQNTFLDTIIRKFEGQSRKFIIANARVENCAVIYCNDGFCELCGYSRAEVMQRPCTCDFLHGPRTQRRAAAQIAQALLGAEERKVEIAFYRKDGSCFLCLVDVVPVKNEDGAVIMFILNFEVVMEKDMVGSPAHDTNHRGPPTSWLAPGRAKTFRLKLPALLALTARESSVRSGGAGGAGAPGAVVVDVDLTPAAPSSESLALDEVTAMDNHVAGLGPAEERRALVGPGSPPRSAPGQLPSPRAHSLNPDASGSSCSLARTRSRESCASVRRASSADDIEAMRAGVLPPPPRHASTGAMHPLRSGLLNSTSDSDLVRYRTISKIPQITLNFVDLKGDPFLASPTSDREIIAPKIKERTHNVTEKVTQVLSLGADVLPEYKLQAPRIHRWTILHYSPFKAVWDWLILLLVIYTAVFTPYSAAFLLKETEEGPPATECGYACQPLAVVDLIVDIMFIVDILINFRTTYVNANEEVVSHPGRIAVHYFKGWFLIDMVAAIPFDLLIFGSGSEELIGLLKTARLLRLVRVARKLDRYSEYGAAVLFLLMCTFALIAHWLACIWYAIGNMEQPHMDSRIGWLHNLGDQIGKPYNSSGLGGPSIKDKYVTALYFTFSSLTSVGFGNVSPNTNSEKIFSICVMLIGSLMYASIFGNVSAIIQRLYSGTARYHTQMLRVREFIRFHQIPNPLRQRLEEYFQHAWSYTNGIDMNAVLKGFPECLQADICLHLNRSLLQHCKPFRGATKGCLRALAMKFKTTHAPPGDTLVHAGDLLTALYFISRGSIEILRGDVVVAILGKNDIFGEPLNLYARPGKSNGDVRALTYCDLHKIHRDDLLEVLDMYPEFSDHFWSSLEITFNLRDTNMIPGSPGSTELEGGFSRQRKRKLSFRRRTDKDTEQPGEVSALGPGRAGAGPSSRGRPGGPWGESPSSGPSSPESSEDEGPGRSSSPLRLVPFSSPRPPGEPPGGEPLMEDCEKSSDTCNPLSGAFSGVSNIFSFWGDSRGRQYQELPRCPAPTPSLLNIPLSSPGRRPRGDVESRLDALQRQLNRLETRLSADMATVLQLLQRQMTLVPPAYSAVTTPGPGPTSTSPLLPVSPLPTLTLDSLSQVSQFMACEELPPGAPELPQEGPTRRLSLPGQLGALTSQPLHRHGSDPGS

Take `COc1ccccc1NC(=O)c1cccc(NC(=O)c2ccccc2C(F)(F)F)c1`: the “fluorescence ratio, lower = inhibition” value was “inactive”. For the molecule `Cc1cccc(-c2n[nH]c(=S)n2C(C)C2CC3CCC2C3)c1` (stereo not drawn), the “fluorescence ratio, lower = inhibition” value was “inactive”. For the molecule `COc1ccccc1C(=O)Nc1cccc(NC(=O)c2ccccc2C)c1`, the “fluorescence ratio, lower = inhibition” value is “inactive”. With `COc1ccccc1NC(=O)c1cccc(NC(=O)C2CCCCC2)c1` the entry was “inactive”; with `Cc1cccc(S(=O)(=O)Nc2cccc(NC(=O)c3ccccc3)c2)c1`, “inactive”. For the molecule `COc1ccccc1C(=O)Nc1cccc(NC(=O)c2ccccc2C(C)C)c1`, the “fluorescence ratio, lower = inhibition” value is “inactive”. For the molecule `Cc1cccc(C(=O)Nc2cccc(NC(=O)c3ccccc3C(F)(F)F)c2)c1`, the “fluorescence ratio, lower = inhibition” value is “inactive”.

Consider `Cc1cccc(C(=O)Nc2cccc(NC(=O)c3ccncc3)c2)c1`, for which the “fluorescence ratio, lower = inhibition” value was “inactive”. Consider `Cc1ccc(-c2n[nH]c(=S)n2C(C)C2CC3CCC2C3)cc1` (stereo not drawn), for which the “fluorescence ratio, lower = inhibition” value was “inactive”. With `CCOc1ccccc1NC(=O)c1cccc(NC(=O)c2ccccc2OC)c1`, the “fluorescence ratio, lower = inhibition” value was “inactive”. As to `COc1ccc(-c2n[nH]c(=S)n2C(C)C2CC3CCC2C3)cc1` (stereo not drawn), the “fluorescence ratio, lower = inhibition” value is “inactive”. With `O=C(Nc1cccc(NC(=O)c2ccc(Cl)cc2)c1)c1ccccc1` the entry was “inactive”; with `O=C(Nc1ccccc1Cl)c1cccc(NC(=O)C2CCCC2)c1`, “inactive”; with `CCOc1ccccc1NC(=O)c1cccc(NC(=O)c2cccc(C(F)(F)F)c2)c1`, “inactive”.

With `Cc1cccc(C(=O)Nc2cccc(NC(=O)c3ccc(C(F)(F)F)cc3)c2)c1`, the “fluorescence ratio, lower = inhibition” value was “inactive”. As for `CCOc1ccccc1NC(=O)c1cccc(NC(=O)c2cccc(OC)c2)c1`, the “fluorescence ratio, lower = inhibition” value was “inactive”.

Consider `CCOc1ccccc1NC(=O)c1cccc(NC(=O)C2CCOC2)c1` (stereo not drawn), for which the “fluorescence ratio, lower = inhibition” value is “inactive”.

For the molecule `O=C(Nc1cccc(NC(=O)C2CCCCC2)c1)c1ccccc1`, the “fluorescence ratio, lower = inhibition” value was “inactive”.
